From patent US9073915B2, “Substituted pyrimidone derivatives” (SANOFI, priority 2008, dated 2015) come the findings set out here.

For one data set, the target named is GSK3β (Homo sapiens, UniProt P49841). Put plainly: Inhibitory activity against GSK3β (33P-ATP phosphorylation of prephosphorylated GS1 peptide, filter assay). Type of data set: biochemical. The note with it: protocol 3: 7.5 μM GS1 peptide, 10 μM ATP, 50 mM Hepes pH 7.2, one hour at room temperature. The method, then: Four different protocols can be used. […]
Chain of GSK3β (P49841 whole entry): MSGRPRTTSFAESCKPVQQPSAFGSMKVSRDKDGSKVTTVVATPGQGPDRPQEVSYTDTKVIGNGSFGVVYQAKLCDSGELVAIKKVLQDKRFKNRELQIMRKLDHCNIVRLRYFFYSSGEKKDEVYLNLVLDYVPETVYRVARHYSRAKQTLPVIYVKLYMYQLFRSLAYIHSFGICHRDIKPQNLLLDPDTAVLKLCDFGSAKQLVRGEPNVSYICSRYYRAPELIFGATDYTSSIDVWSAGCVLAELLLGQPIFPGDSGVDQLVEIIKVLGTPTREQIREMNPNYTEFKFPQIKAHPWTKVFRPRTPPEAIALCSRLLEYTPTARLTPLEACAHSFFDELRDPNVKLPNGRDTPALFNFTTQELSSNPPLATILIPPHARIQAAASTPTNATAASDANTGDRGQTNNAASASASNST
The reaction was stopped with 100 microliters of a solution made of 25 g polyphosphoric acid (85% P2O5), 126 ml 85% H3PO4, H2O to 500 ml and then diluted to 1:100 before use. […] Incorporated ^33P radioactivity was determined by liquid scintillation spectrometry. […]

pIC50: −log10 of the molar value. Where a name gives a salt, the structure may show the parent alone.

Usually pIC50 stands for the IC50 on a negative log10 scale, so that one unit is a factor of ten. As for `COc1ccccc1CCc1cccn2c(=O)cc(-c3ccncc3)nc12` [compound 7, 9-[2-(2-Methoxy-phenyl)-ethyl]-2-pyridin-4-yl-pyrido[1,2-a]pyrimidin-4-one], on GSK3β, the pIC50 is 7.52.

Turning to `O=c1cc(-c2ccncc2)nc2cc(-c3ccccc3)ccn12` [Compound No. 4, 8-Phenyl-2-pyridin-4-yl-pyrido[1,2-a]pyrimidin-4-one], the pIC50 against GSK3β was 6.31.

The term melting point denotes the temperature of the solid-liquid transition. `COc1ccccc1CCc1cccn2c(=O)cc(-c3ccncc3)nc12` (as salt: hydrochloride) [compound 7, 9-[2-(2-Methoxy-phenyl)-ethyl]-2-pyridin-4-yl-pyrido[1,2-a]pyrimidin-4-one] gave a melting point of 220 to 224 °C.

Regarding `O=c1cc(-c2ccncc2)nc2cc(-c3ccccc3)ccn12` (as salt: salt) [Compound No. 4, 8-Phenyl-2-pyridin-4-yl-pyrido[1,2-a]pyrimidin-4-one], the melting point lay within 261 to 262 °C.
